Measurements published in ChEMBL document CHEMBL4825667, “α-Glucosidase Inhibitors from Ageratina grandifolia” (J Nat Prod, 2021).
The source made the active and inactive calls. No cut-off for these calls is given here.

Tests used:
[1] = Inhibition of yeast Alpha-glucosidase using p-nitro phenyl-alpha-D-glucopyranoside as a substrate measured after 20 mins by spectrophotocolorimetric analysis; set-up: species or system Saccharomyces cerevisiae
Saccharomyces cerevisiae [2] = test: Mixed type inhibition of yeast Alpha- glucosidase assessed as decrease in Vmax using varying levels of p-NPG as substrate measured after 20 mins by reciprocal Lineweaver-Burk plot analysis
Saccharomyces cerevisiae [3] = test: Mixed type inhibition of yeast Alpha- glucosidase assessed as increase in Km using varying levels of p-NPG as substrate measured after 20 mins by reciprocal Lineweaver-Burk plot analysis
Homo sapiens [4] = organism: Homo sapiens; test: Inhibition of Type-1 alpha glucosidase (unknown origin)
Homo sapiens [5] = organism: Homo sapiens; test: Inhibition of Type-2 alpha glucosidase (unknown origin)

Row | SMILES | IC50 [1] | further results
1 | COc1cc2c(cc1C(C)O)C=CC(C)(C)O2 (stereo not drawn) | 672 µM | 
2 | CC(=O)c1ccc2c(c1)C=CC(C)(C)O2 | 460 µM | 
3 | O=C(/C=C/c1ccc(O)c(O)c1)OC[C@H]1O[C@@H](Oc2cc3oc(-c4ccc(O)c(O)c4)c(O)c(=O)c3c(O)c2O)[C@H](O)[C@@H](O)[C@@H]1O | 0.79 µM | Vmax (Saccharomyces cerevisiae [2]): 1.42 mM/min; Km (Saccharomyces cerevisiae [3]): 610 µM
4 | COc1cc2c(cc1C(C)=O)C=CC(C)(C)O2 [ENCECALIN] | 440 µM | 
5 | O=C(/C=C/c1ccc(O)c(O)c1)OC[C@H]1O[C@@H](Oc2cc3oc(-c4ccc(O)cc4)c(O)c(=O)c3c(O)c2O)[C@H](O)[C@@H](O)[C@@H]1O | 6.94 µM | 

More lines, in order of falling IC50 [1], values ahead:

Row | IC50 [1] | SMILES | further results
6 | 404 µM | COc1cc2c(cc1C(C)OC)C=CC(C)(C)O2 (stereo not drawn) | 
7 | 402 µM | O=c1c(O)c(-c2ccc(O)c(O)c2)oc2cc(O[C@@H]3O[C@H](CO)[C@@H](O)[C@H](O)[C@H]3O)c(O)c(O)c12 | 
8 | 288 µM | C/C=C(/C)C(=O)O[C@@H](c1cc(C(C)=O)ccc1O)[C@H]1OC1(C)C | 
9 | 279 µM | C[C@H]1O[C@H](O[C@H]2[C@H](O)[C@@H](O)[C@@H](O[C@H]3[C@H](O)[C@@H](O)C(O)O[C@@H]3CO)O[C@@H]2CO)[C@H](O)[C@@H](O)[C@@H]1N[C@H]1C=C(CO)[C@@H](O)[C@H](O)[C@H]1O (stereo partly drawn) [ACARBOSE] | inhibition (Homo sapiens [4]): Active; inhibition (Homo sapiens [5]): Active
